We go through 41 molecules from US10336775B2 (Asceneuron SA, priority 2014, dated 2019).

pIC50: −log10 of the molar value.

The target in the first test is His-Tagged hOGA (human O-GlcNAcase) (Homo sapiens (Human), UniProt O60502). The test is described as follows: Human O-GlcNAcase enzyme inhibition assay (Example B01). Format: biochemical. Conditions: OGA IC50 (M), OGA enzyme inhibition assay; activity range classes defined in μM.
Chain of His-Tagged hOGA (human O-GlcNAcase) (O60502 whole entry): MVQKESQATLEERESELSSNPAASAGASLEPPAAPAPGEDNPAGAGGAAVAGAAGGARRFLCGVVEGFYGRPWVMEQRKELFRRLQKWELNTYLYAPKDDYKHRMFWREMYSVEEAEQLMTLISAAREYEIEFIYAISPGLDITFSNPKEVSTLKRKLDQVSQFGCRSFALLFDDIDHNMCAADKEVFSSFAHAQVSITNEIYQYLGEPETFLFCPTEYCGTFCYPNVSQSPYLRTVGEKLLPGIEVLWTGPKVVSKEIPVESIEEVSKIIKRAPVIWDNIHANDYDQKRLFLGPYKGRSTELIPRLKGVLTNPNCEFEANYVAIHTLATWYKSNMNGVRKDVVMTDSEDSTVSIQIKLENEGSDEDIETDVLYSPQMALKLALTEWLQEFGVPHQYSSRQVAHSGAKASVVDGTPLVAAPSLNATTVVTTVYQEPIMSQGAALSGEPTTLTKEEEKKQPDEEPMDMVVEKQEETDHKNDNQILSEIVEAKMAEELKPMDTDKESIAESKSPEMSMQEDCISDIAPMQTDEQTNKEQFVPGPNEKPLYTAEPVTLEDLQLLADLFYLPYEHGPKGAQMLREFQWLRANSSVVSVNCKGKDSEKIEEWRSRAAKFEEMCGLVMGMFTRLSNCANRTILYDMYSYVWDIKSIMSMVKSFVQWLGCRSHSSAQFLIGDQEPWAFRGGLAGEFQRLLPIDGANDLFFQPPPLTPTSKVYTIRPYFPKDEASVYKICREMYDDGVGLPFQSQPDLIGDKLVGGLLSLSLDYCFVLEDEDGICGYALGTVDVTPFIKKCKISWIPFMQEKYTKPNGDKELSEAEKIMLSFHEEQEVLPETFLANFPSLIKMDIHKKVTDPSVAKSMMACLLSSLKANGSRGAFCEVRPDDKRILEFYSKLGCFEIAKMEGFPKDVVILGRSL
Broadly, the IC50 is the concentration at which inhibition is half-maximal. `CC(=O)Nc1cnc(N2CCN(C(C)c3ccc4c(c3)OCO4)CC2)nc1` (single isomer, unassigned) [Example 78]: the IC50 is less than 5e-08 M.

Molecule `CC(c1ccc2cccnc2c1)N1CCN(c2ncccn2)CC1` (racemic) [Example 91, 7-(1-(4-(pyrimidin-2-yl)piperazin-1-yl)ethyl)quinoline] came in with an IC50 of 5e-08 to 2e-07 M.

Consider `CC(=O)Nc1cnc(N2CCN(C(C)c3ccc4cccnc4c3)CC2)nc1` (racemic) [Example 120, N-(2-(4-(1-(quinolin-7-yl)ethyl)piperazin-1-yl)pyrimidin-5-yl)acetamide], for which the IC50 was in the range of 5e-08 to 2e-07 M.

The same test, now with this note: OGA enzyme inhibition assay; activity range classes defined in μM; read-out: OGA IC50.
As to `CC(c1ccc2nccnc2c1)N1CCN(c2ccc(C(F)(F)F)cn2)CC1` (racemic) [Example 165, 6-(1-(4-(5-(trifluoromethyl)pyridin-2-yl)piperazin-1-yl)ethyl)quinoxaline], the concentration for half-maximal inhibition (IC50) was 2e-07 to 1e-06 M.

As to `CC(c1ccc2c(c1)OCO2)N1CCN(c2ncc(C(=O)N(C)C)cn2)CC1` (racemic) [Example 99, 2-(4-(1-(benzo[d][1,3]dioxol-5-yl)ethyl)piperazin-1-yl)-N,N-dimethylpyrimidine-5-carboxamide], the IC50 is less than 5e-08 M.

For `CC(=O)Nc1ncc(N2CCN(C(C)c3ccc4c(c3)OCO4)CC2)s1` (racemic) [Example 86, N-(5-(4-(1-(benzo[d][1,3]dioxol-5-yl)ethyl)piperazin-1-yl)thiazol-2-yl)acetamide], the IC50 was less than 5e-08 M.

For `CC(c1ccc2c(c1)CCO2)N1CCN(c2ncccn2)CC1` (racemic) [Example 53, 2-(4-(1-(2,3-dihydrobenzofuran-5-yl)ethyl)piperazin-1-yl)pyrimidine], the concentration for half-maximal inhibition (IC50) is 2e-07 to 1e-06 M.

Consider `Cc1csc(C2CCN(C(C)c3ccc4c(c3)OCO4)CC2)n1` (racemic) [Example 1, 2-(1-(1-(Benzo[d][1,3]dioxol-5-yl)ethyl)piperidin-4-yl)-4-methylthiazole], for which the IC50 fell in the range of 2e-07 to 1e-06 M.

As to `CC(c1ccc2c(c1)OCO2)N1CCN(c2ncc(N)cn2)CC1` (racemic) [Example 70, 2-(4-(1-(Benzo[d][1,3]dioxol-5-yl)ethyl)piperazin-1-yl)pyrimidin-5-amine], the IC50 was 2e-07 to 1e-06 M.

Consider `CC(=O)Nc1nnc(N2CCN(C(C)c3ccc4c(c3)OC(F)(F)O4)CC2)s1` (racemic) [Example 117], for which the IC50 lay in the range of 2e-07 to 1e-06 M.

For `CC(c1ccc2c(c1)OCO2)N1CCN(c2nc(C(=O)N(C)C)cs2)CC1` (racemic) [Example 42, 2-(4-(1-(benzo[d][1,3]dioxol-5-yl)ethyl)piperazin-1-yl)-N,N-dimethylthiazole-4-carboxamide], the IC50 was in the range of 2e-07 to 1e-06 M.

`C[C@@H](c1ccc2c(c1)OCO2)N1CCN(c2nc3cnccc3s2)CC1` [Example 139, (S)-2-(4-(1-(benzo[d][1,3]dioxol-5-yl)ethyl)piperazin-1-yl)thiazolo[4,5-c]pyridine]: the IC50 fell in the range of 5e-08 to 2e-07 M.

For the molecule `CC(c1ccc2c(c1)OCO2)N1CCN(c2nc(CO)cs2)CC1` (racemic) [Example 29, (2-(4-(1-(Benzo[d][1,3]dioxol-5-yl)ethyl)piperazin-1-yl)thiazol-4-yl)methanol], the IC50 fell in the range of 5e-08 to 2e-07 M.

For the molecule `Cc1nnc(C2CCN(C(C)c3ccc4c(c3)OCO4)CC2)o1` (racemic) [Example 2, 2-(1-(1-(benzo[d][1,3]dioxol-5-yl)ethyl)piperidin-4-yl)-5-methyl-1,3,4-oxadiazole], the IC50 lay within 2e-07 to 1e-06 M.

As to `CC(c1ccc2nccnc2c1)N1CCN(c2nccc(C(F)(F)F)n2)CC1` (racemic) [Example 94, 6-(1-(4-(4-(trifluoromethyl)pyrimidin-2-yl)piperazin-1-yl)ethyl)quinoxaline], the IC50 lay in the range of 2e-07 to 1e-06 M.

`CCOC(=O)c1cnc(N2CCN(C(C)c3ccc4c(c3)OCO4)CC2)s1` (racemic) [Example 27, Ethyl 2-(4-(1-(benzo[d][1,3]dioxol-5-yl)ethyl)piperazin-1-yl)thiazole-5-carboxylate]: the 50% inhibitory concentration (IC50) was 2e-07 to 1e-06 M.

For the molecule `CC(c1ccc2c(c1)OCO2)N1CCN(c2nnc(NCc3ccc(Cl)cc3)s2)CC1` (racemic) [Example 111, 5-(4-(1-(benzo[d][1,3]dioxol-5-yl)ethyl)piperazin-1-yl)-N-(4-chlorobenzyl)-1,3,4-thiadiazol-2-amine], the IC50 fell in the range of 5e-08 to 2e-07 M.

In the case of `CC(c1ccc2c(c1)OCO2)N1CCN(c2nccs2)CC1` (racemic) [Example 7, 2-(4-(1-(Benzo[d][1,3]dioxol-5-yl)ethyl)piperazin-1-yl)thiazole], the half-maximal inhibitory concentration (IC50) fell in the range of 2e-07 to 1e-06 M.

As to `CC(c1ccc2c(c1)OCO2)N1CCN(c2ccnc(Cl)n2)CC1` (racemic) [Example 40, 4-(4-(1-(Benzo[d][1,3]dioxol-5-yl)ethyl)piperazin-1-yl)-2-chloropyrimidine], the IC50 was in the range of 5e-08 to 2e-07 M.

Regarding `CC(C)NC(=O)c1cnc(N2CCN(C(C)c3ccc4c(c3)OCO4)CC2)s1` (racemic) [Example 43, 2-(4-(1-(Benzo[d][1,3]dioxol-5-yl)ethyl)piperazin-1-yl)-N-isopropylthiazole-5-carboxamide], the IC50 fell in the range of 5e-08 to 2e-07 M.

As to `CC(C)NC(=O)c1csc(N2CCN(C(C)c3ccc4c(c3)OCO4)CC2)n1` (racemic) [Example 32, 2-(4-(1-(Benzo[d][1,3]dioxol-5-yl)ethyl)piperazin-1-yl)-N-isopropylthiazole-4-carboxamide], the IC50 is 2e-07 to 1e-06 M.

Take `CC(c1ccc2c(c1)OCO2)N1CCN(c2nc(C(C)(C)C)cs2)CC1` (racemic) [Example 16, 2-(4-(1-(benzo[d][1,3]dioxol-5-yl)ethyl)piperazin-1-yl)-4-(tert-butyl)thiazole]: the IC50 lay within 1e-06 to 1e-05 M.

In the case of “(2-(4-(1-(benzo[d][1,3]dioxol-5-yl)ethyl)piperazin-1-yl)thiazol-4-yl)methanamine [Example 84]”, the IC50 lay in the range of 5e-08 to 2e-07 M.

Turning to `CC(c1ccc2nccnc2c1)N1CCN(c2nc3c(s2)C(=O)NCC3)CC1` (racemic) [Example 178, 2-(4-(1-(quinoxalin-6-yl)ethyl)piperazin-1-yl)-6,7-dihydrothiazolo[5,4-c]pyridin-4(5H)-one], the IC50 was 2e-07 to 1e-06 M.

For the molecule `Cc1ccc(N2CCN(C(C)c3ccc4c(c3)OCO4)CC2)nc1` (racemic) [Example 14, 1-(1-(Benzo[d][1,3]dioxol-5-yl)ethyl)-4-(5-methylpyridin-2-yl)piperazine], the IC50 lay within 2e-07 to 1e-06 M.

Turning to `CC(C)c1csc(N2CCN(C(C)c3ccc4c(c3)OCO4)CC2)n1` (racemic) [Example 12, 2-(4-(1-(Benzo[d][1,3]dioxol-5-yl)ethyl)piperazin-1-yl)-4-isopropylthiazole], the IC50 fell in the range of 2e-07 to 1e-06 M.

For `CC(=O)Nc1cnc(N2CCN(C(C)c3ccc4ncsc4c3)CC2)nc1` (racemic) [Example 174, N-(2-(4-(1-(benzo[d]thiazol-6-yl)ethyl)piperazin-1-yl)pyrimidin-5-yl)acetamide], the half-maximal inhibitory concentration (IC50) is 1e-06 to 1e-05 M.

For the molecule `CC(c1ccc2c(c1)OCO2)N1CCN(c2nc(-c3ccccc3)cs2)CC1` (racemic) [Example 5, 2-(4-(1-(Benzo[d][1,3]dioxol-5-yl)ethyl)piperazin-1-yl)-4-phenylthiazole], the half-inhibitory concentration (IC50) lay within 2e-07 to 1e-06 M.

For `COc1nc(N2CCN(C(C)c3ccc4c(c3)OCCO4)CC2)ccc1Br` (racemic) [Example 199], the concentration for half-maximal inhibition (IC50) lay within 5e-08 to 2e-07 M.

As for `COc1ccc(-c2csc(N3CCN(C(C)c4ccc5c(c4)OCO5)CC3)n2)cc1` (racemic) [Example 6, 2-(4-(1-(Benzo[d][1,3]dioxol-5-yl)ethyl)piperazin-1-yl)-4-(4-methoxyphenyl)thiazole], the half-inhibitory concentration (IC50) was 1e-06 to 1e-05 M.

Consider `CNC(=O)c1ccc(N2CCN([C@@H](C)c3ccc4c(c3)OCO4)CC2)nc1` [Example 186, (S)-6-(4-(1-(benzo[d][1,3]dioxol-5-yl)ethyl)piperazin-1-yl)-N-methylnicotinamide], for which the IC50 is less than 5e-08 M.

On to `CC(c1ccc2nccnc2c1)N1CCN(c2ncc(F)cn2)CC1` (racemic) [Example 172, 6-(1-(4-(5-fluoropyrimidin-2-yl)piperazin-1-yl)ethyl)quinoxaline], for which the half-maximal inhibitory concentration (IC50) lay in the range of 5e-08 to 2e-07 M.

Take `CCOC(=O)c1csc(N2CCN(C(C)c3ccc4c(c3)OCO4)CC2)n1` (racemic) [Example 17, Ethyl 2-(4-(1-(benzo[d][1,3]dioxol-5-yl)ethyl)piperazin-1-yl)thiazole-4-carboxylate]: the IC50 lay within 2e-07 to 1e-06 M.

In the case of `CC(=O)Nc1cnc(N2CCN(C(C)c3ccc4c(c3)OCCO4)CC2)nc1` (racemic) [Example 96, N-(2-(4-(1-(2,3-Dihydrobenzo[b][1,4]dioxin-6-yl)ethyl)piperazin-1-yl)pyrimidin-5-yl)acetamide], the IC50 was less than 5e-08 M.

As to `CC(c1ccc2c(c1)OCO2)N1CCN(c2nc3ccccc3s2)CC1` (racemic) [Example 130, 2-(4-(1-(benzo[d][1,3]dioxol-5-yl)ethyl)piperazin-1-yl)benzo[d]thiazole], the IC50 fell in the range of 2e-07 to 1e-06 M.

For the molecule `COc1ccnc(N2CCN(C(C)c3ccc4c(c3)OCO4)CC2)n1` (racemic) [Example 39, 2-(4-(1-(Benzo[d][1,3]dioxol-5-yl)ethyl)piperazin-1-yl)-4-methoxypyrimidine], the concentration for half-maximal inhibition (IC50) lay in the range of 5e-08 to 2e-07 M.

As for `Cc1ncc(N2CCN(C(C)c3ccc4c(c3)OCO4)CC2)s1` (racemic) [Example 37, 5-(4-(1-(Benzo[d][1,3]dioxol-5-yl)ethyl)piperazin-1-yl)-2-methylthiazole], the IC50 is less than 5e-08 M.

`C[C@@H](c1ccc2c(c1)OCO2)N1CCN(c2nc3ccccc3[nH]2)CC1` [Example 138, (S)-2-(4-(1-(benzo[d][1,3]dioxol-5-yl)ethyl)piperazin-1-yl)-1H-benzo[d]imidazole]: the IC50 lay within 1e-06 to 1e-05 M.

The test is the same for the next values; noted with them: measured according to Example B01.
Turning to `CC(c1ccc2c(c1)OCCO2)N1CCN(c2ncccn2)CC1` (single isomer, unassigned) [Example 34], the “OGA inhibitor activity (in words)” value is given as “very potent OGA inhibitors”.

For `CNC(=O)c1csc(N2CCN(C(C)c3ccc4c(c3)OCO4)CC2)n1` (single isomer, unassigned) [Example 56], the “OGA inhibitor activity (in words)” value is “very potent OGA inhibitors”.

Turning to `Cc1ncc(N2CCN(C(C)c3ccc4c(c3)OCO4)CC2)s1` (racemic) [Example 37, 5-(4-(1-(Benzo[d][1,3]dioxol-5-yl)ethyl)piperazin-1-yl)-2-methylthiazole], the “OGA inhibitor activity (in words)” value is “very potent OGA inhibitors”.

Still in this test, the particulars now being: read-out: OGA IC50.
Usually pIC50 stands for the negative decadic logarithm of the IC50, by convention in mol/L. `c1cnc(N2CCN(Cc3ccc4c(c3)OCO4)CC2)nc1` [U.S. Pat. No. 3,299,067 (Example 1), reference compound]: the pIC50 is 6.00.
